Data published in PubChem BioAssay (NCI).
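A five-concentration, 48-hour dose response in 96-well plates underlies each endpoint, interpolated linearly between surrounding concentrations. Here, GI50 denotes the concentration required for 50% inhibition of growth. At the TGI there is no net growth.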

What was measured:
Assay in all cases: NCI tumour cell line growth inhibition, 48 h
KM12 colon = system: KM12 colon
TK-10 renal = system: TK-10 renal
NCI-H460 lung = system: NCI-H460 lung
SF-268 CNS = system: SF-268 CNS
SK-MEL-5 melanoma = system: SK-MEL-5 melanoma
SK-OV-3 ovarian = system: SK-OV-3 ovarian
HOP-92 NSCLC = system: HOP-92 NSCLC
HCT-116 colon = system: HCT-116 colon
HS 578T breast = system: HS 578T breast
CAKI-1 renal = system: CAKI-1 renal
COLO 205 colon = system: COLO 205 colon
OVCAR-8 ovarian = system: OVCAR-8 ovarian
UACC-257 melanoma = system: UACC-257 melanoma
MCF7 breast = system: MCF7 breast
SF-539 CNS = system: SF-539 CNS
UO-31 renal = system: UO-31 renal
HCT-15 colon = system: HCT-15 colon
U251 CNS = system: U251 CNS
EKVX NSCLC = system: EKVX NSCLC
NCI-H226 lung = system: NCI-H226 lung
K-562 leukemia = system: K-562 leukemia
OVCAR-4 ovarian = system: OVCAR-4 ovarian
SN12C renal = system: SN12C renal
SW-620 colon = system: SW-620 colon
786-0 renal = system: 786-0 renal
UACC-62 melanoma = system: UACC-62 melanoma
IGROV1 ovarian = system: IGROV1 ovarian
T-47D breast = system: T-47D breast
RXF 393 renal = system: RXF 393 renal
MDA-MB-231 breast = system: MDA-MB-231 breast
HCC-2998 colon = system: HCC-2998 colon
HL-60(TB) leukemia = system: HL-60(TB) leukemia
ACHN renal = system: ACHN renal
NCI-H522 lung = system: NCI-H522 lung
HOP-62 NSCLC = system: HOP-62 NSCLC
NCI-H23 lung = system: NCI-H23 lung
MALME-3M melanoma = system: MALME-3M melanoma
SNB-75 CNS = system: SNB-75 CNS
M14 melanoma = system: M14 melanoma
MDA-MB-435 = system: MDA-MB-435
MOLT-4 leukemia = system: MOLT-4 leukemia
BT-549 breast = system: BT-549 breast
SNB-19 CNS = system: SNB-19 CNS
SR leukemia = system: SR leukemia
HT29 colon = system: HT29 colon
LOX IMVI melanoma = system: LOX IMVI melanoma
A498 renal = system: A498 renal
SK-MEL-2 melanoma = system: SK-MEL-2 melanoma
PC-3 prostate = system: PC-3 prostate
RPMI-8226 leukemia = system: RPMI-8226 leukemia
OVCAR-3 ovarian = system: OVCAR-3 ovarian
DU-145 prostate = system: DU-145 prostate
A549 NSCLC = system: A549 NSCLC
NCI/ADR-RES ovarian = system: NCI/ADR-RES ovarian
SK-MEL-28 melanoma = system: SK-MEL-28 melanoma
SF-295 CNS = system: SF-295 CNS
OVCAR-5 ovarian = system: OVCAR-5 ovarian
CCRF-CEM leukemia = system: CCRF-CEM leukemia

Question: Which results are given for CCc1nn2c(C)cc(C)nc2c1Cc1ccc(/C=C/CN2CCN(CCOCCOCCN3CCN(C/C=C/c4ccc(Cc5c(CC)nn6c(C)cc(C)nc56)cc4)CC3)CC2)cc1?
Answer: GI50 (KM12 colon): 3.28 µM; TGI (KM12 colon): 7.96 µM; GI50 (TK-10 renal): 5.72 µM; TGI (TK-10 renal): 10.4 µM; GI50 (NCI-H460 lung): 1.88 µM; TGI (NCI-H460 lung): 3.53 µM; GI50 (SF-268 CNS): 2.94 µM; TGI (SF-268 CNS): 8.26 µM; GI50 (SK-MEL-5 melanoma): 1.87 µM; TGI (SK-MEL-5 melanoma): 3.52 µM; GI50 (SK-OV-3 ovarian): 5.75 µM; TGI (SK-OV-3 ovarian): 10.5 µM; GI50 (HOP-92 NSCLC): 2.37 µM; TGI (HOP-92 NSCLC): 7.16 µM; GI50 (HCT-116 colon): 1.63 µM; TGI (HCT-116 colon): 3.16 µM; GI50 (HS 578T breast): 5.14 µM; TGI (HS 578T breast): 12.1 µM; GI50 (CAKI-1 renal): 1.59 µM; TGI (CAKI-1 renal): 3.35 µM; GI50 (COLO 205 colon): 1.71 µM; TGI (COLO 205 colon): 3.22 µM; GI50 (OVCAR-8 ovarian): 1.92 µM; TGI (OVCAR-8 ovarian): 3.92 µM; GI50 (UACC-257 melanoma): 1.74 µM; TGI (UACC-257 melanoma): 3.4 µM; GI50 (MCF7 breast): 1.7 µM; TGI (MCF7 breast): 3.35 µM; GI50 (SF-539 CNS): 1.72 µM; TGI (SF-539 CNS): 3.19 µM; GI50 (UO-31 renal): 1.42 µM; TGI (UO-31 renal): 3.05 µM; GI50 (HCT-15 colon): 1.69 µM; TGI (HCT-15 colon): 3.4 µM; GI50 (U251 CNS): 1.85 µM; TGI (U251 CNS): 3.76 µM; GI50 (EKVX NSCLC): 4.26 µM; TGI (EKVX NSCLC): 8.84 µM; GI50 (NCI-H226 lung): 5.09 µM; TGI (NCI-H226 lung): 10.9 µM; GI50 (K-562 leukemia): 1.79 µM; TGI (K-562 leukemia): 4.41 µM; GI50 (OVCAR-4 ovarian): 1.8 µM; TGI (OVCAR-4 ovarian): 3.86 µM; GI50 (SN12C renal): 1.86 µM; TGI (SN12C renal): 3.99 µM; GI50 (SW-620 colon): 1.7 µM; TGI (SW-620 colon): 3.31 µM; GI50 (786-0 renal): 1.72 µM; TGI (786-0 renal): 3.28 µM; GI50 (UACC-62 melanoma): 1.74 µM; TGI (UACC-62 melanoma): 3.3 µM; GI50 (IGROV1 ovarian): 2.8 µM; TGI (IGROV1 ovarian): 7.64 µM; GI50 (T-47D breast): 1.74 µM; TGI (T-47D breast): 3.74 µM; GI50 (RXF 393 renal): 1.68 µM; TGI (RXF 393 renal): 3.97 µM; GI50 (MDA-MB-231 breast): 1.91 µM; TGI (MDA-MB-231 breast): 4.13 µM; GI50 (HCC-2998 colon): 1.77 µM; TGI (HCC-2998 colon): 3.48 µM; GI50 (HL-60(TB) leukemia): 1.78 µM; TGI (HL-60(TB) leukemia): 3.74 µM; GI50 (ACHN renal): 2.25 µM; TGI (ACHN renal): 5.2 µM; GI50 (NCI-H522 lung): 1.7 µM; TGI (NCI-H522 lung): 3.39 µM; GI50 (HOP-62 NSCLC): 4.63 µM; TGI (HOP-62 NSCLC): 9.44 µM; GI50 (NCI-H23 lung): 1.86 µM; TGI (NCI-H23 lung): 3.65 µM; GI50 (MALME-3M melanoma): 1.73 µM; TGI (MALME-3M melanoma): 3.23 µM; GI50 (SNB-75 CNS): 4.09 µM; TGI (SNB-75 CNS): 8.18 µM; GI50 (M14 melanoma): 1.76 µM; TGI (M14 melanoma): 3.37 µM; GI50 (MDA-MB-435): 1.75 µM; TGI (MDA-MB-435): 3.26 µM; GI50 (MOLT-4 leukemia): 2.16 µM; TGI (MOLT-4 leukemia): 5.13 µM; GI50 (BT-549 breast): 4.98 µM; TGI (BT-549 breast): 9.52 µM; GI50 (SNB-19 CNS): 2.94 µM; TGI (SNB-19 CNS): 7.95 µM; GI50 (SR leukemia): 1.81 µM; TGI (SR leukemia): 4.6 µM; GI50 (HT29 colon): 1.66 µM; TGI (HT29 colon): 3.26 µM; GI50 (LOX IMVI melanoma): 1.68 µM; TGI (LOX IMVI melanoma): 3.16 µM; GI50 (A498 renal): 5.15 µM; TGI (A498 renal): 9.66 µM; GI50 (SK-MEL-2 melanoma): 5.35 µM; TGI (SK-MEL-2 melanoma): 9.95 µM; GI50 (PC-3 prostate): 2.81 µM; TGI (PC-3 prostate): 7.76 µM; GI50 (RPMI-8226 leukemia): 1.87 µM; TGI (RPMI-8226 leukemia): 4.33 µM; GI50 (OVCAR-3 ovarian): 2.58 µM; TGI (OVCAR-3 ovarian): 7.12 µM; GI50 (DU-145 prostate): 2.88 µM; TGI (DU-145 prostate): 7.21 µM; GI50 (A549 NSCLC): 4.25 µM; TGI (A549 NSCLC): 8.78 µM; GI50 (NCI/ADR-RES ovarian): 2.74 µM; TGI (NCI/ADR-RES ovarian): 7.88 µM; GI50 (SK-MEL-28 melanoma): 1.75 µM; TGI (SK-MEL-28 melanoma): 3.2 µM; GI50 (SF-295 CNS): 2.95 µM; TGI (SF-295 CNS): 7.6 µM; GI50 (OVCAR-5 ovarian): 4.8 µM; TGI (OVCAR-5 ovarian): 9.34 µM; GI50 (CCRF-CEM leukemia): 1.64 µM; TGI (CCRF-CEM leukemia): 4.18 µM
